The record followed here is patent US9096646B2, “CXCR4 receptor compounds” (priority 2008, dated 2015).

Each structure is given as a SMILES string. Square brackets hold non-standard residues; d marks the D form. Peptide text beside a SMILES is read from it. * marks the point of attachment. ξ: configuration not given here. Palmitoyl = CCCCCCCCCCCCCCCC(=O)*; ξF = NC(Cc1ccccc1)C(=O)O Some results are limits rather than exact numbers.

CXCR4, sequence (P61073 whole entry): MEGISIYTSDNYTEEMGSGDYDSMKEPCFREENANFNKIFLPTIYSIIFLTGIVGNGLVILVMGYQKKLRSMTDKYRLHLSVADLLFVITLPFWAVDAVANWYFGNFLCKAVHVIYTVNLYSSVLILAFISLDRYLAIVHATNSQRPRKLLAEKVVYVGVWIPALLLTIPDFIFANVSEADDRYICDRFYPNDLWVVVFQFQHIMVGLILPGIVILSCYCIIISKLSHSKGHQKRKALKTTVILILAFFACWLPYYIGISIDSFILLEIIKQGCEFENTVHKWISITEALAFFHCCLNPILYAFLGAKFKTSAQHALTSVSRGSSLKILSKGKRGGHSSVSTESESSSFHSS

In this assay the target is CXCR4 (Homo sapiens, UniProt P61073). As to the kind of experiment: Calcium flux assay in CCRF-CEM cells (SDF-1α activation of CXCR4; intrinsic agonist activity). More on the design: a human T-cell ALL line that endogenously expresses CXCR4; endogenous in cells; host or cells: CCRF-CEM (human T-cell ALL line). Particulars: SDF-1α activation of CXCR4, Calcium-4 dye, read-out: IC50 (nM), CXCR4 i1 loop compound Calcium Flux Data. The assay is classed as cell-based. The text has this:
Calcium Flux Assay is one of the most popular cell-based GPCR functional assays. It most often uses calcium sensing fluorescent dyes such as fura2 AM, fluo-4 and Calcium-4 to measure changes in intracellular calcium concentration. It is used mainly to detect GPCR signaling via Gaq subunit. Activation of these Gq-coupled GPCRs leads to activation of phospholipase C, which subsequently leads to increase in inositol phosphate production. IP3 receptors on endoplasmic reticulum sense the change then release calcium into cytoplasm. Intracellular calcium binding to the fluorescent dyes can be detected by instruments that quantify fluorescent intensities, such as FLIPR Tetra, Flexstation (MDS) and FDSS (Hamamatsu). In additional to assess Gq-couple receptor signaling, calcium flux assay can also be used to study Gs and Gi couple receptors by co-expressing CNG (cyclic nucleotide gated calcium channel) or chimeric G-proteins (Gqi5, Gsi5 for example). Activation of some Gi-coupled receptors can also be detected by calcium flux assay via Gβγmediated phospholipase C activation.
The calcium flux assay was used to assess SDF-1α activation of CXCR4 in CCRF-CEM cells (human T lymphoblasts from acute lymphoblastic leukemia). CCRF-CEM cells were seeded into 96-well black plates with clear bottom at 200K/well in RPMI 1640 media with 20 mM HEPES containing 0.2% BSA. After dye loading by incubating with Calcium-4 dye at 37° C. for 1 hour, cell plates were read at 37° C. using the Flexstation 3 workstation. The addition of test compounds or reference antagonists was accomplished either by manual pipetting or by liquid handling using the Flexstation. The latter allows the assessment of intrinsic agonist activity of the test compounds by measuring initial changes in fluorescent intensity. After incubation of 24 minutes at 37° C., SDF-1α was added and receptor activation was assessed by measuring changes in fluorescent intensity using the Flexstation.
In the case of `CCCCCCCCCCCCCCCC(=O)N[C@@H](CCSC)C(=O)NCC(=O)N[C@@H](Cc1ccc(O)cc1)C(=O)N[C@@H](CCC(N)=O)C(=O)N[C@H](CCCCN)C(=O)N[C@@H](CCCCN)C(=O)N[C@@H](CC(C)C)C(=O)N[C@@H](CCCNC(=N)N)C(=O)N[C@@H](CO)C(=O)N[C@@H](CCSC)C(=O)N[C@H](C(=O)N[C@@H](CC(=O)O)C(=O)N[C@@H](CCCCN)C(=O)N[C@@H](C)C(=O)N[C@@H](CCCNC(=N)N)C(=O)N[C@@H](CC(C)C)C(N)=O)[C@@H](C)O` [Compound 151] (Palmitoyl-MGYQ[dK]KLRSMTDKARL-NH2), the IC50 was over 10000 nM. In the case of `CCCCCCCCCCCCCCCC(=O)N[C@@H](CCSC)C(=O)NCC(=O)N[C@@H](Cc1ccc(O)cc1)C(=O)N[C@@H](CCC(N)=O)C(=O)N[C@H](CCCCN)C(=O)N[C@@H](CCCCN)C(=O)N[C@@H](CC(C)C)C(=O)N[C@@H](CCCNC(=N)N)C(=O)N[C@@H](CO)C(=O)N[C@@H](CCSC)C(=O)N[C@H](C(=O)N[C@@H](CC(=O)O)C(=O)N[C@@H](CCCCN)C(=O)N[C@@H](Cc1ccc(O)cc1)C(=O)N[C@@H](C)C(=O)N[C@@H](CC(C)C)C(N)=O)[C@@H](C)O` [Compound 152] (Palmitoyl-MGYQ[dK]KLRSMTDKYAL-NH2) it was over 10000 nM; in that of `CCCCCCCCCCCCCCCC(=O)N[C@@H](CCSC)C(=O)NCC(=O)N[C@@H](Cc1ccc(O)cc1)C(=O)N[C@@H](CCC(N)=O)C(=O)N[C@H](CCCCN)C(=O)N[C@@H](CCCCN)C(=O)N[C@@H](CC(C)C)C(=O)N[C@@H](CCCNC(=N)N)C(=O)N[C@@H](CO)C(=O)N[C@@H](CCSC)C(=O)N[C@H](C(=O)N[C@@H](CC(=O)O)C(=O)N[C@@H](CCCCN)C(=O)NC(Cc1ccccc1)C(=O)N[C@@H](CCCNC(=N)N)C(=O)N[C@@H](C)C(N)=O)[C@@H](C)O` (stereo partly shown) [Compound 153] (Palmitoyl-MGYQ[dK]KLRSMTDK[ξF]RA-NH2), over 10000 nM; in that of `CCCCCCCCCCCCCCCC(=O)N[C@@H](CCSC)C(=O)NCC(=O)N[C@@H](Cc1ccc(O)cc1)C(=O)N[C@@H](CCC(N)=O)C(=O)N[C@@H](CCCCN)C(=O)N[C@@H](CCCCN)C(=O)N[C@@H](CC(C)C)C(=O)N[C@@H](CCCNC(=N)N)C(=O)N[C@@H](CO)C(=O)N[C@@H](CCSC)C(=O)N[C@H](C(=O)N[C@@H](CC(=O)O)C(=O)N[C@@H](CCCCN)C(=O)N[C@@H](Cc1ccc(O)cc1)C(=O)N[C@@H](CCCNC(=N)N)C(=O)N[C@H](CC(C)C)C(N)=O)[C@@H](C)O` [Compound 159] (Palmitoyl-MGYQKKLRSMTDKYR[dL]-NH2), over 10000 nM.

Consider `CCCCCCCCCCCCCCCC(=O)N[C@@H](CCSC)C(=O)NCC(=O)N[C@@H](Cc1ccc(O)cc1)C(=O)N[C@@H](CCC(N)=O)C(=O)N[C@@H](CCCCN)C(=O)N[C@@H](CCCCN)C(=O)N[C@@H](CC(C)C)C(=O)N[C@@H](CCCNC(=N)N)C(=O)N[C@@H](CO)C(=O)N[C@@H](CCSC)C(=O)N[C@H](C(=O)N[C@@H](CC(=O)O)C(=O)N[C@@H](CCCCN)C(=O)N[C@H](Cc1ccc(O)cc1)C(=O)N[C@@H](CCCNC(=N)N)C(=O)N[C@@H](CC(C)C)C(N)=O)[C@@H](C)O` [Compound 161] (Palmitoyl-MGYQKKLRSMTDK[dY]RL-NH2), for which the IC50 is over 10000 nM. In the case of `CCCCCCCCCCCCCCCC(=O)N[C@@H](CCSC)C(=O)NCC(=O)N[C@@H](Cc1ccc(O)cc1)C(=O)N[C@@H](CCC(N)=O)C(=O)N[C@@H](CCCCN)C(=O)N[C@@H](CCCCN)C(=O)N[C@H](CC(C)C)C(=O)N[C@@H](CCCNC(=N)N)C(=O)N[C@@H](CO)C(=O)N[C@@H](CCSC)C(=O)N[C@H](C(=O)N[C@@H](CC(=O)O)C(=O)N[C@@H](CCCCN)C(=O)N[C@@H](Cc1ccc(O)cc1)C(=O)N[C@@H](CCCNC(=N)N)C(=O)N[C@@H](CC(C)C)C(N)=O)[C@@H](C)O` [Compound 170] (Palmitoyl-MGYQKK[dL]RSMTDKYRL-NH2) it was 72 nM. The value for `CCCCCCCCCCCCCCCC(=O)N[C@@H](CCSC)C(=O)NCC(=O)N[C@@H](Cc1ccc(O)cc1)C(=O)N[C@@H](CCC(N)=O)C(=O)N[C@@H](CCCCN)C(=O)N[C@@H](CCCCN)C(=O)N[C@@H](CC(C)C)C(=O)N[C@H](CCCNC(=N)N)C(=O)N[C@@H](CO)C(=O)N[C@@H](CCSC)C(=O)N[C@H](C(=O)N[C@@H](CC(=O)O)C(=O)N[C@@H](CCCCN)C(=O)N[C@@H](Cc1ccc(O)cc1)C(=O)N[C@@H](CCCNC(=N)N)C(=O)N[C@@H](CC(C)C)C(N)=O)[C@@H](C)O` [Compound 171] (Palmitoyl-MGYQKKL[dR]SMTDKYRL-NH2) was 72 nM.
